The values below come from publication PMC10144222 (Marine Drugs, 2023).

Data set [1] is classed as physicochemical. The settings on record: pH 7.4.
Another data set addresses Cav2.2 channel (Homo sapiens, UniProt Q00975). Put plainly: cell-based. Format: cell-based.
For data set [2], the system named is coordinated locomotion in mice. The following applies: mouse, in vivo.
In a further data set the test system is tremor in mice. The following applies: mouse, in vivo.
The next data set is described as follows: in vitro. The following applies: human, serum.

Sequence of Cav2.2 channel (Q00975 whole entry, looked up): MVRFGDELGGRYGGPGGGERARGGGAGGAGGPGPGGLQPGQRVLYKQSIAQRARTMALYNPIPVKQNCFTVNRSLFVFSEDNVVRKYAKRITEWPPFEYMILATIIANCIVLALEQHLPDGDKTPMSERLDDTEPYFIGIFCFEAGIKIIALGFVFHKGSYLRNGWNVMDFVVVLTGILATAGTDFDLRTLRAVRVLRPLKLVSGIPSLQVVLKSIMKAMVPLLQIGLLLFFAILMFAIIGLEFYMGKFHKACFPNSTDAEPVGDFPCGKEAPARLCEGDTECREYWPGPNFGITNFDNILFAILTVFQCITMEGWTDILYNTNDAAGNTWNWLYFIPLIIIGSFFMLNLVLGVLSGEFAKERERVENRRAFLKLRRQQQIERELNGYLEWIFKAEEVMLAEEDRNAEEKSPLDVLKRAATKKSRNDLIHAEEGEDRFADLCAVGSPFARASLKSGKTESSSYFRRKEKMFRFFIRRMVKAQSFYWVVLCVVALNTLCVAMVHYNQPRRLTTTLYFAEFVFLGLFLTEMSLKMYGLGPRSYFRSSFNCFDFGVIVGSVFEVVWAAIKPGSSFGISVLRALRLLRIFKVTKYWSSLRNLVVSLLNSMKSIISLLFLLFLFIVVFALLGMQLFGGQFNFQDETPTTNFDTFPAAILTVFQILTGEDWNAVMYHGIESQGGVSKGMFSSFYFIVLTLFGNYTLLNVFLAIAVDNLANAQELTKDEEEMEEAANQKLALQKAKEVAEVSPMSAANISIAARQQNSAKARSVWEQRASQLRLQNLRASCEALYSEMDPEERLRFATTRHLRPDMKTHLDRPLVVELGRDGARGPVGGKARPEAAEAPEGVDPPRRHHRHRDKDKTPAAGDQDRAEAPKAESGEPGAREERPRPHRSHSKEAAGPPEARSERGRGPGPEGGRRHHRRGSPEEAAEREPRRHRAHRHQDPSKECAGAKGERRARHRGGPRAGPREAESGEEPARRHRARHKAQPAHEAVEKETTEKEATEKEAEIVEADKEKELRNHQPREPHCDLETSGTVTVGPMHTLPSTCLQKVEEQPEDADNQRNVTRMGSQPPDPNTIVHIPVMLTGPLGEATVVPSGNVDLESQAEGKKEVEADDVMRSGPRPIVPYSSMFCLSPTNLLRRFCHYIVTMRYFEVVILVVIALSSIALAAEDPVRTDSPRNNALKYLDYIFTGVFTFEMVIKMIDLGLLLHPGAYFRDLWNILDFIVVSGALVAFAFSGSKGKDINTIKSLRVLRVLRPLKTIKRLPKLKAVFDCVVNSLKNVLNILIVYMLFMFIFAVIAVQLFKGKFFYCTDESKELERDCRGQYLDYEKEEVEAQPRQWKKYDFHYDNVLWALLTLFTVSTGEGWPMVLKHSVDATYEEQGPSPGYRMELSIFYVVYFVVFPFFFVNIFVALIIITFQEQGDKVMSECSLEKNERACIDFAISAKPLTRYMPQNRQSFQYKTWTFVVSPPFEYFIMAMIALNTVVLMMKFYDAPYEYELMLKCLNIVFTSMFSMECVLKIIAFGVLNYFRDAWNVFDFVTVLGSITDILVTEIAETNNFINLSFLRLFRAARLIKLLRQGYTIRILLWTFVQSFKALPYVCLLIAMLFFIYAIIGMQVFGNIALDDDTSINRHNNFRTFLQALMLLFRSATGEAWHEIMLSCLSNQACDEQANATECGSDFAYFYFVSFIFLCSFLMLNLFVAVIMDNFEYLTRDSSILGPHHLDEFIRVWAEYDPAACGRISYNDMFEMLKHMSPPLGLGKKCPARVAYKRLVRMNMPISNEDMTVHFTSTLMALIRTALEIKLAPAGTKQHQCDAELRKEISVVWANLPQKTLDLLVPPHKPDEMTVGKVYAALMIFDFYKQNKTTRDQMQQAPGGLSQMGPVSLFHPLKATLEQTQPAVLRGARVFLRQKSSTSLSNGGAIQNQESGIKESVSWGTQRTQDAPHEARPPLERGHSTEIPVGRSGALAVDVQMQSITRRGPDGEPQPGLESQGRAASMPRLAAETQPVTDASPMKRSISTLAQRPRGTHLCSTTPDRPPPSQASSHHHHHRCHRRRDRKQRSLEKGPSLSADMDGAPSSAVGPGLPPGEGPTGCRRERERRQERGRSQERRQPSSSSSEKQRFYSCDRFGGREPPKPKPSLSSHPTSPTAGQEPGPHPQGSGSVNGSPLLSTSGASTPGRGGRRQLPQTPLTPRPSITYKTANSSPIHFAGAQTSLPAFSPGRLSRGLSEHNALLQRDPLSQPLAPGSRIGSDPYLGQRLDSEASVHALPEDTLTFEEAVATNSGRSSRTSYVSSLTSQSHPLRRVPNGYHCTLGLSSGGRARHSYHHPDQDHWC

Take `CSCC[C@@H]1NC(=O)[C@H](CC(C)C)NC(=O)[C@H](CCCNC(=N)N)NC(=O)[C@H](CO)NC(=O)[C@@H]2CSSC[C@@H]3NC(=O)[C@H](CO)NC(=O)CNC(=O)[C@H]([C@@H](C)O)NC(=O)[C@H](CSSC[C@H](N)C(=O)N[C@@H](CCCCN)C(=O)NCC(=O)N[C@@H](CCCCN)C(=O)NCC(=O)N[C@@H](C)C(=O)N[C@@H](CCCCN)C(=O)N2)NC(=O)[C@H](CSSC[C@@H](C(N)=O)NC(=O)[C@H](CCCCN)NC(=O)CNC(=O)[C@H](CO)NC(=O)[C@H](CCCNC(=N)N)NC3=O)NC(=O)[C@H](CC(=O)O)NC(=O)[C@H](Cc2ccc(O)cc2)NC1=O` [MVIIA, ω-conotoxin MVIIA, reference compound]: the “particle size (dynamic light scattering)” value in data set [1] is given as 48.74 ± 16.07 nm. Besides, at Cav2.2 channel, the “reduction of ICa amplitude” value is 100.00 ± 0.00%. The “effect on coordinated locomotion” value in data set [2] is “significant at 30–60 min and gradually decreased from 2 to 4 h”. Besides, the “tremor intensity (4-point scale 0-3)” value in the data set on tremor in mice is reported as “highest tremor intensity at 30–60 min, after which it gradually decreased”.
On to `CCCCCCCCCCCCCC(=O)N[C@H]1CSSC[C@@H]2NC(=O)[C@@H]3CSSC[C@@H](C(N)=O)NC(=O)[C@H](CCCCN)NC(=O)CNC(=O)[C@H](CO)NC(=O)[C@H](CCCNC(=N)N)NC(=O)[C@H](CSSC[C@H](NC(=O)[C@H](CCCCN)NC(=O)[C@H](C)NC(=O)CNC(=O)[C@H](CCCCN)NC(=O)CNC(=O)[C@H](CCCCN)NC1=O)C(=O)N[C@@H](CO)C(=O)N[C@@H](CCCNC(=N)N)C(=O)N[C@@H](CC(C)C)C(=O)N[C@@H](CCSC)C(=O)N[C@@H](Cc1ccc(O)cc1)C(=O)N[C@@H](CC(=O)O)C(=O)N3)NC(=O)[C@H](CO)NC(=O)CNC(=O)[C@H]([C@@H](C)O)NC2=O` [Myr-MVIIA], for which, on Cav2.2 channel, the 50% inhibitory concentration (IC50) (usually the concentration that gives 50% inhibition) worked out at 92.1 nM and the “reduction of ICa amplitude” value is recorded as 66.83 ± 0.16%. Besides, the “effect on coordinated locomotion” value in data set [2] is on record as “did not affect coordinated locomotion”. Besides, the “tremor intensity (4-point scale 0-3)” value in the data set on tremor in mice was “no tremor symptoms”. In addition, the amount remaining (commonly the share of the starting amount still present when the sample was taken) at 24 h in the data set “in vitro” stood at 67.8%.
